Holding throughout (format): cell-based
Common to all, as to settings: Table 7; cAMP formation
(Cyclic AMP is a second messenger, typically raised through Gs and lowered through Gi signalling.)

Assay [1] addresses T1, human GLP-1 receptor (hGLP-1 R) (Homo sapiens, UniProt P43220).
T1 construct: expressed in transfected cells
As to the kind of experiment: cAMP response of HEK-293 cells stably expressing human GLP-1 receptor (HTRF). In a few lines: (§1)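 Stably transfected HEK-293 cells, accutase-harvested; assay buffer 1×HBSS/20 mM HEPES/0.1% BSA/2 mM IBMX; 400000 cells/ml; compound 30 min, RT; cAMP by HTRF kit.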
Background: Time-resolved FRET reads energy transfer from a long-lived donor to a nearby acceptor.

In assay [2] the target is T2, human GIP receptor (hGIP R) (Homo sapiens, UniProt P48546).
T2 construct: expressed in transfected cells
T2 sequence (P48546 22-466): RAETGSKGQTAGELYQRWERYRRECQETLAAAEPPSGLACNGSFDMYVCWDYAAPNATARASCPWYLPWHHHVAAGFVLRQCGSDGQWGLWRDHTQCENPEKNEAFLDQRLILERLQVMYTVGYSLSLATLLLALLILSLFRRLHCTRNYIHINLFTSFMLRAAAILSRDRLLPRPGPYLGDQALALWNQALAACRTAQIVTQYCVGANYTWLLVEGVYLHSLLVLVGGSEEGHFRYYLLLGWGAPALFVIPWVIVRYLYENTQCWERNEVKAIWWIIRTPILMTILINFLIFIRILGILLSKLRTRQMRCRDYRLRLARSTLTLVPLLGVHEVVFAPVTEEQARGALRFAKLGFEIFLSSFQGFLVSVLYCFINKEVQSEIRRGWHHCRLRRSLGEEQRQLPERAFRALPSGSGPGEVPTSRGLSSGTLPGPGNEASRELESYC
Put plainly: cAMP response of HEK-293 cells stably expressing human GIP receptor (HTRF). The method in brief: as §1

The target of assay [3] is T3, human glucagon receptor (hGLUC R) (Homo sapiens, UniProt P47871).
T3 construct: expressed in transfected cells
As to the kind of experiment: cAMP response of HEK-293 cells stably expressing human glucagon receptor (HTRF). In a few lines: as §1

*1 amine or outer side, *2 acyl side, *3 side chain or, on linkers, in order; H or OH if unused. Where a SMILES comes first, the peptide text is derived from it. Side-chain parts run from the residue outwards. [ ]: non-standard residue; d: D form. The star is where a group is joined. γGlu = O=C(O)[C@H](CCC(=O)[*:2])N[*:1]; Stearoyl = CCCCCCCCCCCCCCCCCC(=O)*; Palmitoyl = CCCCCCCCCCCCCCCC(=O)*; Aib = CC(C)(N)C(=O)O

T1 sequence (P43220 24-463): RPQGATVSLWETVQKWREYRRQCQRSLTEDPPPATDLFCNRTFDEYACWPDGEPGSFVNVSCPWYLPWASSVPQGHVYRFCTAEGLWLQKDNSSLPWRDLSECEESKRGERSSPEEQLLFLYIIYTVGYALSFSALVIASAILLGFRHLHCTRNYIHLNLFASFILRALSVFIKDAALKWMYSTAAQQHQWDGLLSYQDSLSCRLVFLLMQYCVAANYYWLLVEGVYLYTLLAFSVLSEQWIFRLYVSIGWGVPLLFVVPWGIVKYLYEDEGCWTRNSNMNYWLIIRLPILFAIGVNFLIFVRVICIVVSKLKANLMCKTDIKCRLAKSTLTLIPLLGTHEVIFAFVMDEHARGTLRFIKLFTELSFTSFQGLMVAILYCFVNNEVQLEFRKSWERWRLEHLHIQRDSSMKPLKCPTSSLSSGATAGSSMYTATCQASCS
T3 sequence (P47871 26-477): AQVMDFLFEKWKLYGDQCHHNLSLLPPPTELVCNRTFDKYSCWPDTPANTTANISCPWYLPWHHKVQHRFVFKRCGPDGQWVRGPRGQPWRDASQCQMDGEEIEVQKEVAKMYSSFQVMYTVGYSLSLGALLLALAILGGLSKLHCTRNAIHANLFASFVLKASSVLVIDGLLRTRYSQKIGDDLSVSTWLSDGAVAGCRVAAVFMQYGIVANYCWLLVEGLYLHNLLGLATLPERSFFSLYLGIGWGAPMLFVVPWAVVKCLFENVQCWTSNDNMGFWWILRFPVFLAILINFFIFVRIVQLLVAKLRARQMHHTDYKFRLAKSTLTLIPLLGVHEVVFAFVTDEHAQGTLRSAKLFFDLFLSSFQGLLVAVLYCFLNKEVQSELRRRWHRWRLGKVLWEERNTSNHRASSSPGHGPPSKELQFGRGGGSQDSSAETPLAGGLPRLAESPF

For the molecule `CCCCCCCCCCCCCCCCCC(=O)N[C@@H](CCC(=O)NCCCC[C@H](NC(=O)[C@H](CCC(N)=O)NC(=O)[C@@H](NC(=O)[C@H](CO)NC(=O)[C@H](CC(C)C)NC(=O)[C@H](CC(=O)O)NC(=O)[C@H](CO)NC(=O)[C@@H](NC(=O)[C@H](Cc1ccccc1)NC(=O)[C@@H](NC(=O)CNC(=O)[C@H](CCC(=O)O)NC(=O)C(C)(C)NC(=O)[C@@H](N)Cc1ccc(O)cc1)[C@@H](C)O)[C@@H](C)O)[C@@H](C)CC)C(=O)N[C@@H](CCC(=O)O)C(=O)N[C@@H](CCC(=O)O)C(=O)N[C@@H](CCC(=O)O)C(=O)N[C@@H](C)C(=O)N[C@H](C(=O)N[C@@H](CCCCN)C(=O)N[C@@H](CC(C)C)C(=O)N[C@@H](Cc1ccccc1)C(=O)N[C@H](C(=O)N[C@@H](CCC(=O)O)C(=O)N[C@@H](Cc1c[nH]c2ccccc12)C(=O)N[C@@H](CC(C)C)C(=O)N[C@@H](CCCCN)C(=O)N[C@@H](C)C(=O)NCC(=O)NCC(=O)N1CCC[C@H]1C(=O)N[C@@H](CO)C(=O)N[C@@H](CO)C(=O)NCC(=O)N[C@@H](C)C(=O)N1CCC[C@H]1C(=O)N1CCC[C@H]1C(=O)N1CCC[C@H]1C(=O)N[C@@H](CO)C(N)=O)[C@@H](C)CC)C(C)C)C(=O)O` [SEQ ID NO: 62, Y-Aib-E-G-T-F-T-S-D-L-S-I-Q-K(yE-x70)-EEEAVKLFIEWLKAGGPSSGAPPPS-NH2] (H-Y[Aib]EGTFTSDLSIQK([γGlu-Stearoyl])EEEAVKLFIEWLKAGGPSSGAPPPS-NH2), the half-maximal effective concentration (EC50) (usually the concentration that produces a half-maximal response) was 0.0076 nM in assay [1], 0.0067 nM in assay [2] and more than 1000 nM in assay [3].
Take `CCCCCCCCCCCCCCCC(=O)N[C@@H](CCC(=O)NCCCC[C@H](NC(=O)[C@H](CCC(N)=O)NC(=O)[C@@H](NC(=O)[C@H](CO)NC(=O)[C@H](CC(C)C)NC(=O)[C@H](CC(=O)O)NC(=O)[C@H](CO)NC(=O)[C@@H](NC(=O)[C@H](Cc1ccccc1)NC(=O)[C@@H](NC(=O)CNC(=O)[C@H](CCC(N)=O)NC(=O)C(C)(C)NC(=O)[C@@H](N)Cc1ccc(O)cc1)[C@@H](C)O)[C@@H](C)O)[C@@H](C)CC)C(=O)N[C@@H](CC(=O)O)C(=O)N[C@@H](CO)C(=O)N[C@@H](CCCNC(=N)N)C(=O)N[C@@H](C)C(=O)N[C@@H](C)C(=O)N[C@@H](CCC(N)=O)C(=O)N[C@@H](CC(=O)O)C(=O)N[C@@H](Cc1ccccc1)C(=O)N[C@H](C(=O)N[C@@H](CCC(=O)O)C(=O)N[C@@H](Cc1c[nH]c2ccccc12)C(=O)N[C@@H](CC(C)C)C(=O)N[C@@H](CCCCN)C(=O)N[C@@H](CCCCN)C(=O)NCC(=O)NCC(=O)N1CCC[C@H]1C(=O)N[C@@H](CO)C(=O)N[C@@H](CO)C(=O)NCC(=O)N[C@@H](C)C(=O)N1CCC[C@H]1C(=O)N1CCC[C@H]1C(=O)N1CCC[C@H]1C(=O)N[C@@H](CO)C(N)=O)[C@@H](C)CC)C(=O)O` [SEQ ID NO: 43, Y-Aib-Q-G-T-F-T-S-D-L-S-I-Q-K(yE-x53)-DSRAAQDFIEWLKKGGPSSGAPPPS-NH2] (H-Y[Aib]QGTFTSDLSIQK([γGlu-Palmitoyl])DSRAAQDFIEWLKKGGPSSGAPPPS-NH2): the EC50 stood at 0.007 nM in assay [1], 0.0482 nM in assay [2] and 0.114 nM in assay [3].
Consider `CCCCCCCCCCCCCCCC(=O)N[C@@H](CCC(=O)NCCCC[C@H](NC(=O)[C@H](CCC(N)=O)NC(=O)[C@@H](NC(=O)[C@H](CO)NC(=O)[C@H](CC(C)C)NC(=O)[C@H](CC(=O)O)NC(=O)[C@H](CO)NC(=O)[C@@H](NC(=O)[C@H](Cc1ccccc1)NC(=O)[C@@H](NC(=O)CNC(=O)[C@H](CCC(N)=O)NC(=O)C(C)(C)NC(=O)[C@@H](N)Cc1ccc(O)cc1)[C@@H](C)O)[C@@H](C)O)[C@@H](C)CC)C(=O)N[C@@H](CC(=O)O)C(=O)N[C@@H](CCCCN)C(=O)N[C@@H](CCCNC(=N)N)C(=O)N[C@@H](C)C(=O)N[C@@H](C)C(=O)NC(C)(C)C(=O)N[C@@H](CC(C)C)C(=O)N[C@@H](Cc1ccccc1)C(=O)N[C@H](C(=O)N[C@@H](CCC(=O)O)C(=O)N[C@@H](Cc1c[nH]c2ccccc12)C(=O)N[C@@H](CC(C)C)C(=O)N[C@@H](CCCCN)C(=O)N[C@@H](C)C(=O)NCC(=O)NCC(=O)N1CCC[C@H]1C(=O)N[C@@H](CO)C(=O)N[C@@H](CO)C(=O)NCC(=O)N[C@@H](C)C(=O)N1CCC[C@H]1C(=O)N1CCC[C@H]1C(=O)N1CCC[C@H]1C(=O)N[C@@H](CO)C(N)=O)[C@@H](C)CC)C(=O)O` [SEQ ID NO: 27, Y-Aib-Q-G-T-F-T-S-D-L-S-I-Q-K(yE-x53)-D-K-R-A-A-Aib-L-F-I-E-W-L-K-A-G-G-P-S-S-G-A-P-P-P-S-NH2] (H-Y[Aib]QGTFTSDLSIQK([γGlu-Palmitoyl])DKRAA[Aib]LFIEWLKAGGPSSGAPPPS-NH2), for which the concentration giving a half-maximal response (EC50) was 0.0147 nM in assay [1], 0.0826 nM in assay [2] and 0.0389 nM in assay [3].
With `CCCCCCCCCCCCCCCC(=O)N[C@@H](CCC(=O)NCCCC[C@H](NC(=O)[C@H](CCC(N)=O)NC(=O)[C@@H](NC(=O)[C@H](CO)NC(=O)[C@H](CC(C)C)NC(=O)[C@H](CC(=O)O)NC(=O)[C@H](CO)NC(=O)[C@@H](NC(=O)[C@H](Cc1ccccc1)NC(=O)[C@@H](NC(=O)CNC(=O)[C@H](CCC(N)=O)NC(=O)C(C)(C)NC(=O)[C@@H](N)Cc1ccc(O)cc1)[C@@H](C)O)[C@@H](C)O)[C@@H](C)CC)C(=O)N[C@@H](CC(=O)O)C(=O)N[C@@H](CO)C(=O)N[C@@H](CCC(=O)O)C(=O)N[C@@H](C)C(=O)N[C@@H](C)C(=O)N[C@@H](CCC(N)=O)C(=O)N[C@@H](CC(=O)O)C(=O)N[C@@H](Cc1ccccc1)C(=O)N[C@H](C(=O)N[C@@H](CCC(=O)O)C(=O)N[C@@H](Cc1c[nH]c2ccccc12)C(=O)N[C@@H](CC(C)C)C(=O)N[C@@H](CCCCN)C(=O)N[C@@H](C)C(=O)NCC(=O)NCC(=O)N1CCC[C@H]1C(=O)N[C@@H](CO)C(=O)N[C@@H](CO)C(=O)NCC(=O)N[C@@H](C)C(=O)N1CCC[C@H]1C(=O)N1CCC[C@H]1C(=O)N1CCC[C@H]1C(=O)N[C@@H](CO)C(N)=O)[C@@H](C)CC)C(=O)O` [SEQ ID NO: 48, Y-Aib-Q-G-T-F-T-S-D-L-S-I-Q-K(yE-x53)-DSEAAQDFIEWLKAGGPSSGAPPPS-NH2] (H-Y[Aib]QGTFTSDLSIQK([γGlu-Palmitoyl])DSEAAQDFIEWLKAGGPSSGAPPPS-NH2), the values for the EC50 in assay [1], in assay [2] and in assay [3] were 0.0101 nM, 0.0158 nM and 0.478 nM, respectively.
Turning to `CCCCCCCCCCCCCCCCCC(=O)N[C@@H](CCC(=O)NCCCC[C@H](NC(=O)[C@H](CCC(N)=O)NC(=O)[C@@H](NC(=O)[C@H](CO)NC(=O)[C@H](CC(C)C)NC(=O)[C@H](CC(=O)O)NC(=O)[C@H](CO)NC(=O)[C@@H](NC(=O)[C@H](Cc1ccccc1)NC(=O)[C@@H](NC(=O)CNC(=O)[C@H](CCC(=O)O)NC(=O)C(C)(C)NC(=O)[C@@H](N)Cc1ccc(O)cc1)[C@@H](C)O)[C@@H](C)O)[C@@H](C)CC)C(=O)N[C@@H](CCC(=O)O)C(=O)N[C@@H](CO)C(=O)N[C@@H](CCCCN)C(=O)N[C@@H](C)C(=O)N[C@@H](C)C(=O)N[C@@H](Cc1c[nH]cn1)C(=O)N[C@@H](CCC(=O)O)C(=O)N[C@@H](Cc1ccccc1)C(=O)N[C@H](C(=O)N[C@@H](CCC(=O)O)C(=O)N[C@@H](Cc1c[nH]c2ccccc12)C(=O)N[C@@H](CC(C)C)C(=O)N[C@@H](CCCCN)C(=O)N[C@@H](C)C(=O)NCC(=O)NCC(=O)N1CCC[C@H]1C(=O)N[C@@H](CO)C(=O)N[C@@H](CO)C(=O)NCC(=O)N[C@@H](C)C(=O)N1CCC[C@H]1C(=O)N1CCC[C@H]1C(=O)N1CCC[C@H]1C(=O)N[C@@H](CO)C(=O)N[C@@H](CCCCN)C(N)=O)[C@@H](C)CC)C(=O)O` [SEQ ID NO: 58, Y-Aib-E-G-T-F-T-S-D-L-S-I-Q-K(yE-x70)-ESKAAHEFIEWLKAGGPSSGAPPPSK-NH2] (H-Y[Aib]EGTFTSDLSIQK([γGlu-Stearoyl])ESKAAHEFIEWLKAGGPSSGAPPPSK-NH2), the half-maximal effective concentration (EC50) in assay [1] worked out at 0.0125 nM; in assay [2], 0.0086 nM; in assay [3] it was 16 nM.
As for `CCCCCCCCCCCCCCCC(=O)N[C@@H](CCC(=O)NCCCC[C@H](NC(=O)[C@H](CCC(N)=O)NC(=O)[C@H](CCCCN)NC(=O)[C@H](CO)NC(=O)[C@H](CC(C)C)NC(=O)[C@H](CC(=O)O)NC(=O)[C@H](CO)NC(=O)[C@@H](NC(=O)[C@H](Cc1ccccc1)NC(=O)[C@@H](NC(=O)CNC(=O)[C@H](CCC(N)=O)NC(=O)C(C)(C)NC(=O)[C@@H](N)Cc1ccc(O)cc1)[C@@H](C)O)[C@@H](C)O)C(=O)N[C@@H](CCC(=O)O)C(=O)N[C@@H](CO)C(=O)N[C@@H](CCCCN)C(=O)N[C@@H](C)C(=O)N[C@@H](C)C(=O)N[C@@H](CCC(N)=O)C(=O)N[C@@H](CC(=O)O)C(=O)N[C@@H](Cc1ccccc1)C(=O)N[C@H](C(=O)N[C@@H](CCC(=O)O)C(=O)N[C@@H](Cc1c[nH]c2ccccc12)C(=O)N[C@@H](CC(C)C)C(=O)N[C@@H](CCCCN)C(=O)N[C@@H](C)C(=O)NCC(=O)NCC(=O)N1CCC[C@H]1C(=O)N[C@@H](CO)C(=O)N[C@@H](CO)C(=O)NCC(=O)N[C@@H](C)C(=O)N1CCC[C@H]1C(=O)N1CCC[C@H]1C(=O)N1CCC[C@H]1C(=O)N[C@@H](CO)C(N)=O)[C@@H](C)CC)C(=O)O` [SEQ ID NO: 39, Y-Aib-Q-G-T-F-T-S-D-L-S-K-Q-K(yE-x53)-ESKAAQDFIEWLKAGGPSSGAPPPS-NH2] (H-Y[Aib]QGTFTSDLSKQK([γGlu-Palmitoyl])ESKAAQDFIEWLKAGGPSSGAPPPS-NH2), the EC50 in assay [1] came to 0.0045 nM; in assay [2] it was 0.0385 nM; in assay [3], 0.0192 nM.

The values are drawn from patent US20140213513A1 (Sanofi, priority 2012, published 2014).
